Assay results reported in patent US8017348B1, “Assay for Parkinson's Disease therapeutics” (Elan Pharma International Limited, priority 2005, dated 2011).
pIC50: −log10 of the molar value. Where two headings read alike, the source gives them in different places.

Tests used:
Parkin = test: GFPu assay in HEK293 cells transfected with wild type Parkin (aggresome formation / proteasome function); type: cell-based, human; conditions: for aggresome formation (qualitative, GFPu screen): LOPAC screen hits
Experimental: A summary of the finalized automation scheme is outlined in FIG. 12. Briefly, cells were manually transfected with Parkin using the Fugene Reagent (Roche) and then incubated for three hours at 37° C. […] Compounds were then added to the cell plate at a final concentration of 10 uM using the Multimek™ Automated Pipettor. Compounds were incubated with cells for 45 hours at 37° C. and then the media was gently aspirated with the Multimek. A mixture of 1 ug/ml Hoechst dye and 4% paraformaldehyde were then added to the cells for 40 minutes at room temperature using the Titertek Multidrop™ Lab System. Cell plates were subsequently washed using the Tecan PowerWasher and then read on the Cellomcis ArrayScan. A detailed protocol outlining this process step by step is shown in Example 8.
This example describes a protocol for the GFPu Assay in 96-well format. It will be appreciated that the protocol can be readily modified for other multi-well formats and that certain parameters can vary. […] Dose-response curves are generated using methods known in the art. Typically, serial 2-fold or 3-fold dilutions (usually in the range 10 uM to 50 pM) are tested.
1) HEK293 cells stably expressing GFP are cultured in DMEM containing 10% FBS, glutamine 2 mM and G418 sulfate at 600 μg/ml.
2) HEK 293 cells are harvested using PBS containing 5 mM EDTA. 180 μl of HEK293 cells at 67,000 cells/ml are then plated onto Costar PDL coated plates (#3667). After seeding cells on the plate, we let them sit for 30 minutes at room temperature in the tissue culture hood before placing them back into the incubator. This treatment may help reduce edge effects and is optional.
3) Incubate the plate overnight at 37° C./5% CO2 in the incubator.
4) A typical transfection cocktail is created as follows: Mix 50 ml of serum free DMEM with 1.087 ml of Fugene and wait 5 minutes at room temperature. Next add 375 μg of Parkin DNA or control vector, gently mix and incubate 35-45 minutes at room temperature.
5) Add 20 μl of transfection cocktail to each well of the plate and place back in the incubator for three hours at 37° C.
6) Add 20 μl of compound to all relevant wells. Final in-well concentration for compound is 10 μM. The DMSO concentration final in-well is 0.2%. Compound plates are diluted using serum free DMEM.
7) Plates are then incubated for 45 hours at 37° C. and 5% CO2.
8) Aspirate media out of wells.
9) Add […] a mixture containing 1 μg/ml Hoechst dye and 4% paraformaldehyde in 0.1M NaPhosphate buffer for 40 minutes at room temperature.
10) Wash with PBS containing calcium and magnesium and leave 200 μl in well.
11) Read on the ArrayScan using the Target Activation Bioapplication. […]
(§1) Dose response curves were generated by exposing cells to compounds at various concentrations. […] “Hill” refers to the Hill Slope.

CFTR = test: GFPu assay selectivity screen, cells transfected with CFTR; type: cell-based; conditions: 10 uM to about 78 nM
From the text: (§2) The first is the RING finger ligase NRDP1 as a molecule structurally and functionally similar to Parkin. The second is the Cystic Fibrosis Transmembrane Conductance Regulator (CFTR) as a molecule that is a twelve-pass membrane channel protein, and structurally not related to Parkin.
as §1

HEK293 cells = test: Cytotoxicity (cell count) in HEK293 cells; conditions: for cytotoxicity: HEK293 cells
From the text: In terms of charactering cytotoxicity, compounds were given a low rating if the cell count was >75% of control levels, a medium rating if the cell count was between 50 and 75% of control wells, and a high rating if the cell count was less than 50% of control levels.

NRDP1 = test: GFPu assay selectivity screen, cells transfected with NRDP1; type: cell-based; conditions: for pIC50: GFPu assay, NRDP1 transfected cells, 10 uM to about 78 nM, read-out: NRDP IC50
From the text: as §2, §1

aldehyde dehydrogenase = conditions: at higher concentrations (25-50 uM); cited from earlier work
3-PI-dependent kinase 1 = target: T1, 3-PI-dependent kinase 1 (Homo sapiens, UniProt O15530); conditions: at higher concentrations (25-50 uM); cited from earlier work
T1 sequence (O15530 1-556): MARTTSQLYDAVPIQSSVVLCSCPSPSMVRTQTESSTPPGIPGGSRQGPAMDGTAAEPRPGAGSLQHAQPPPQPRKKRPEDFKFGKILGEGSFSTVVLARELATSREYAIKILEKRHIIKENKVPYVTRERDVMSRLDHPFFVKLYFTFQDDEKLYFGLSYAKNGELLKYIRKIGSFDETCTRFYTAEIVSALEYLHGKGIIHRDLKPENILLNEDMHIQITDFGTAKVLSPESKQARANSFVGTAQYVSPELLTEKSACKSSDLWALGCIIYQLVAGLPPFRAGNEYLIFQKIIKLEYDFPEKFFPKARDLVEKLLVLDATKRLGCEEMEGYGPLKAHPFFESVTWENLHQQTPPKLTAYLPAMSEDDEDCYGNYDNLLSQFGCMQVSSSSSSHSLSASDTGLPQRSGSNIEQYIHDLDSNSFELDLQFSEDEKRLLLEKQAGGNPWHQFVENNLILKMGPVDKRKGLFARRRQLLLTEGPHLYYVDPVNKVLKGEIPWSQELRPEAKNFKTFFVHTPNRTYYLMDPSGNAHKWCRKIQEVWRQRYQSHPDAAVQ

[1] = system: cAMP dependent protein kinase; conditions: at higher concentrations (25-50 uM); cited from earlier work
aggresome formation = conditions: Johnston et al., 1998; cited from earlier work
[2] = Homo sapiens, HEK293, GFPu assay, Parkin transfected cells, eight 2-fold dilutions 10 uM to about 78 nM, read-out: Parkin IC50
[3] = dose response, eight 2-fold dilutions 10 uM to about 78 nM
[4] = Parkin expressing HEK293 cells, read-out: IC50 in the GFPu assay
[5] = Homo sapiens, Parkin expressing HEK293 cells, read-out: IC50 in the GFPu assay

Row | SMILES | pIC50 (Parkin; [2]) | aggresome formation (qualitative, GFPu screen) (Parkin) | pIC50 (CFTR) | pIC50 (NRDP1) | TC50 (HEK293 cells; human) [µM] | pIC50 (Parkin; [5]) | other results
1 | O=C(O)CCCc1ccc(N(CCCl)CCCl)cc1 [ELN29018, chlorambucil] | 5.14 | decreased aggresome formation | < 5.00 | – | – | – | cytotoxicity (HEK293 cells): did not exhibit much cytotoxicity; TC50 (HEK293 cells; [3]): >10; NRDP % @ 10 (NRDP1; @ 10): 32% @ 10
2 | O=c1[nH]cc(F)c(=O)[nH]1 [ELN29019, 5-fluoruracil] | – | – | < 5.00 | 5.80 | – | – | pIC50 (Parkin; [4]): 5.05; TC50 (HEK293 cells): > 10 µM
3 | COC(=O)Nc1nc2ccc(C(=O)c3cccs3)cc2[nH]1 [ELN475312, nocodazol] | 5.97 | inhibitors of aggresome formation | < 5.00 | < 5.00 | < 0.078 | – | –
4 | Nc1ncn([C@@H]2O[C@H](CO)[C@@H](O)[C@H]2O)c(=O)n1 [ELN476201, 5-azacytidine] | 5.27 | – | < 5.00 | 5.24 | > 10 | 5.27 | –
5 | O=C(N[C@@H](Cc1ccccc1)C(=O)CCl)OCc1ccccc1 [ELN476309, ZPCK] | – | – | 5.41 | 6.59 | – | – | pIC50 (Parkin; GFPu assay, Parkin transfected cells, eight 2-fold dilutions 10 uM to about 78 nM, read-out: Parkin IC50): 5.39; pIC50 (Parkin; [4]): 5.39; TC50 (HEK293 cells): 10 µM
6 | COc1cc2c(c(OC)c1OC)-c1ccc(OC)c(=O)cc1[C@@H](NC(C)=O)CC2 [ELN476311, colchicine] | – | inhibitors of aggresome formation | – | – | – | – | TC50 (HEK293 cells; [3]): <0.078
7 | N[C@@H](Cc1ccc(N(CCCl)CCCl)cc1)C(=O)O [ELN476469, melphalan] | 5.22 | decreased aggresome formation | < 5.00 | < 5.00 | – | – | cytotoxicity (HEK293 cells): did not exhibit much cytotoxicity; TC50 (HEK293 cells; [3]): >10
8 | O=C1c2c(O)ccc(O)c2C(=O)c2c(NCCNCCO)ccc(NCCNCCO)c21 [ELN476491, mitoxantrone] | > 7.11 | – | 5.80 | 5.82 | 6.53 | > 7.11 | –
9 | O=c1c(O)c(-c2cc(O)c(O)c(O)c2)oc2cc(O)cc(O)c12 [ELN476493, myricetin] | < 5.00 | – | < 5.00 | < 5.00 | > 10 | – | inhibition at 10 µM (Parkin; Homo sapiens, HEK293, at 10 μM, LOPAC screen): 59%; % inhibition upon dose-response curve follow-up (Parkin; dose-response curve follow-up, 40% inhibition threshold): < 40%
10 | COC[C@H]1OC(=O)c2coc3c2[C@@]1(C)C1=C(C3=O)[C@@H]2CCC(=O)[C@@]2(C)C[C@H]1OC(C)=O [ELN476646, Wortmannin] | 6.12 | – | < 5.00 | < 5.00 | 1.9 | 6.12 | –
11 | COc1cc([C@@H]2c3cc4c(cc3[C@H](O)[C@H]3COC(=O)[C@H]23)OCO4)cc(OC)c1OC [ELN476767, podophyllotoxin] | > 7.11 | inhibitors of aggresome formation | < 5.00 | < 5.00 | – | > 7.11 | TC50 (HEK293 cells; [3]): <0.078
12 | CC(=O)O[C@H]1C(=O)[C@@]2(C)[C@H]([C@H](OC(=O)c3ccccc3)[C@]3(O)C[C@H](OC(=O)[C@H](O)[C@@H](NC(=O)c4ccccc4)c4ccccc4)C(C)=C1C3(C)C)[C@]1(OC(C)=O)CO[C@@H]1C[C@@H]2O [ELN476780, taxol] | > 6.81 | inhibitors of aggresome formation | < 5.00 | < 5.00 | < 0.078 | > 7.11 | –
13 | CN(Cc1cnc2nc(N)nc(N)c2n1)c1ccc(C(=O)N[C@@H](CCC(=O)O)C(=O)O)cc1 [ELN476809, methotrexate] | > 7.11 | – | < 5.00 | 6.81 | > 10 | > 7.11 | –
14 | Cc1ccc(S(=O)(=O)N[C@@H](Cc2ccccc2)C(=O)CCl)cc1 [ELN477056, TPCK] | – | – | < 5.00 | 5.26 | – | – | pIC50 (Parkin; [4]): 5.03; TC50 (HEK293 cells; [3]): >10
15 | CC[C@]1(O)C[C@@H]2CN(CCc3c([nH]c4ccccc34)[C@@](C(=O)OC)(c3cc4c(cc3OC)N(C)[C@H]3[C@@](O)(C(=O)OC)[C@H](OC(C)=O)[C@]5(CC)C=CCN6CC[C@]43[C@@H]65)C2)C1 [ELN477062, vinblastine] | > 7.11 | inhibitors of aggresome formation | < 5.00 | < 5.00 | < 0.078 | – | –
16 | CC[C@]1(O)C[C@H]2CN(CCc3c([nH]c4ccccc34)[C@@](C(=O)OC)(c3cc4c(cc3OC)N(C=O)[C@H]3[C@@](O)(C(=O)OC)[C@H](OC(C)=O)[C@]5(CC)C=CCN6CC[C@]43[C@@H]65)C2)C1 [ELN477063, vincristine] | > 7.11 | inhibitors of aggresome formation | < 5.00 | < 5.00 | < 0.078 | – | –
17 | Cc1ccc(S(=O)(=O)N[C@@H](Cc2ccccc2)C(=O)CCl)cc1 [TPCK] | – | – | – | – | – | – | inhibition of aldehyde dehydrogenase (aldehyde dehydrogenase): inhibit; inhibition of 3-PI-dependent kinase 1 (3-PI-dependent kinase 1): inhibit; inhibition of cAMP dependent protein kinase [1]: inhibit
18 | COc1cc2c(c(OC)c1OC)-c1ccc(OC)c(=O)cc1[C@@H](NC(C)=O)CC2 [colchicine] | – | – | – | – | – | – | aggresome formation (literature) (aggresome formation): completely abrogated aggresome formation
19 | COC(=O)Nc1nc2ccc(C(=O)c3cccs3)cc2[nH]1 [nocodazol] | – | – | – | – | – | – | aggresome formation (literature) (aggresome formation): completely abrogated aggresome formation
20 | CC[C@]1(O)C[C@@H]2CN(CCc3c([nH]c4ccccc34)[C@@](C(=O)OC)(c3cc4c(cc3OC)N(C)[C@H]3[C@@](O)(C(=O)OC)[C@H](OC(C)=O)[C@]5(CC)C=CCN6CC[C@]43[C@@H]65)C2)C1 [vinblastine] | – | – | – | – | – | – | aggresome formation (literature) (aggresome formation): completely abrogated aggresome formation
